Earlier results on one compound are cited in patent publication CN101129366A, “一种尼莫地平药物组合物及其制备方法” (Beijing Zhonghaikang Medical Technology Development Co Ltd, priority 2007, dated 2008).

For the data set the following is noted: drug substance.

On to `COCCOC(=O)C1=C(C)NC(C)=C(C(=O)OC(C)C)C1c1cccc([N+](=O)[O-])c1` (stereo not shown) [尼莫地平], for which the “solubility in acetone and chloroform” value (acetone, chloroform) is listed as “易溶”. For the same compound, the solubility in ethanol entry (ethanol) is listed as “溶解”. Besides, the “solubility in diethyl ether” value (ether) was “微溶”. Further, the solubility in water result (water) is recorded as “不溶”.
